Test results: the kinase profiling compilation of Christmann-Franck et al. (2016)

Key:
Assay in all cases: radiometric filter-binding kinase assay
EIF2AK3 (human) = EIF2AK3 (human) (UniProt Q9NZJ5)
STK16 (human) = STK16 (human) (UniProt O75716)
IRAK1 (human) = IRAK1 (human) (UniProt P51617)
STK33 (human) = STK33 (human) (UniProt Q9BYT3)
TESK1 (human) = TESK1 (human) (UniProt Q15569)
TTBK1 (human) = TTBK1 (human) (UniProt Q5TCY1)
TEK (human) = TEK (human) (UniProt Q02763)
PTK6 (human) = PTK6 (human) (UniProt Q13882)
[1] = system: OXSR1 (human), O95747 [T185E]
ABL1 (human) = ABL1 (human) (UniProt P00519)
PRKCG (human) = PRKCG (human) (UniProt P05129)
ZAP70 (human) = ZAP70 (human) (UniProt P43403)
TSSK1B (human) = TSSK1B (human) (UniProt Q9BXA7)
TSSK1B (human), sequence (Q9BXA7 whole entry, looked up): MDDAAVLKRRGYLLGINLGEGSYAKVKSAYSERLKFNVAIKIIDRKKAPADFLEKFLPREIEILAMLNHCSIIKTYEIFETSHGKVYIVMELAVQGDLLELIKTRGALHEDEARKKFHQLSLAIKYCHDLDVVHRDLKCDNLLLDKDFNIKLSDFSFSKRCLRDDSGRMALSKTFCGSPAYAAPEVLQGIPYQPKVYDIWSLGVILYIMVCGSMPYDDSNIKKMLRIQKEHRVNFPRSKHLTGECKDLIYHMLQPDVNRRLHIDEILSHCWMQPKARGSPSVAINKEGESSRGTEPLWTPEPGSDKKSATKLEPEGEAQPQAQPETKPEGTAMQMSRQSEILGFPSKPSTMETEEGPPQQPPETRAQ

TLK1 (human) = TLK1 (human) (UniProt Q9UKI8)
TLK1 (human), sequence (Q9UKI8 whole entry, looked up): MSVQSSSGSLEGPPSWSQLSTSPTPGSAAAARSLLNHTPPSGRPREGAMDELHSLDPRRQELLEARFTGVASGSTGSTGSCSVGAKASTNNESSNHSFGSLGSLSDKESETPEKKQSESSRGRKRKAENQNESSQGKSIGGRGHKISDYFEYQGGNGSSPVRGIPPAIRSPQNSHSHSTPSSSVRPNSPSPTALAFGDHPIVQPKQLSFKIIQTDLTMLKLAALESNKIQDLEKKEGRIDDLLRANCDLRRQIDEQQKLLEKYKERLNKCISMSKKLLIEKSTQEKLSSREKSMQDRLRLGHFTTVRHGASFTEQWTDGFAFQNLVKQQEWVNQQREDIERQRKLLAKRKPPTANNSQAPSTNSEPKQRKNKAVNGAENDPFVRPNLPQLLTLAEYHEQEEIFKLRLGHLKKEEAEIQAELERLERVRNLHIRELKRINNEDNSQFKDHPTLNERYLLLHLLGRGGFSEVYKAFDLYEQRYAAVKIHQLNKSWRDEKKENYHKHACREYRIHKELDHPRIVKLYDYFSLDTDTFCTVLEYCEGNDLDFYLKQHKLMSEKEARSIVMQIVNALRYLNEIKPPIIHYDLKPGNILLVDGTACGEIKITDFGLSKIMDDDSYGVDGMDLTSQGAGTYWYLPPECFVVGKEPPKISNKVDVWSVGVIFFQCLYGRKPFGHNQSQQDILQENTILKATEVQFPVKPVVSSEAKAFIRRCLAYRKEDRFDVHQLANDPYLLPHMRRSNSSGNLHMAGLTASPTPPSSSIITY

MAPK11 (human) = MAPK11 (human) (UniProt Q15759)
MAPK11 (human), sequence (Q15759 whole entry, looked up): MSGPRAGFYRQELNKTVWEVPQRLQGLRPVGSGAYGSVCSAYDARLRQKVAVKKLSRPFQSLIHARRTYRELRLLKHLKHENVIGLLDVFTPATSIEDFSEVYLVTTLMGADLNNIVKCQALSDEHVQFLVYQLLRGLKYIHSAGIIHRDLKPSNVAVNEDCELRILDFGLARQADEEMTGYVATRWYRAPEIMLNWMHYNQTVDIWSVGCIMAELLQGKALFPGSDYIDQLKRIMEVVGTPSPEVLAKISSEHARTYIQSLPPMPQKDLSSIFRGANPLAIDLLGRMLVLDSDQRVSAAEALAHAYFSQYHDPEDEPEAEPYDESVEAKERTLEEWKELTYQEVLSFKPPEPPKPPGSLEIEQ

PAK6 (human) = PAK6 (human) (UniProt Q9NQU5)
PAK6 (human), sequence (Q9NQU5 whole entry, looked up): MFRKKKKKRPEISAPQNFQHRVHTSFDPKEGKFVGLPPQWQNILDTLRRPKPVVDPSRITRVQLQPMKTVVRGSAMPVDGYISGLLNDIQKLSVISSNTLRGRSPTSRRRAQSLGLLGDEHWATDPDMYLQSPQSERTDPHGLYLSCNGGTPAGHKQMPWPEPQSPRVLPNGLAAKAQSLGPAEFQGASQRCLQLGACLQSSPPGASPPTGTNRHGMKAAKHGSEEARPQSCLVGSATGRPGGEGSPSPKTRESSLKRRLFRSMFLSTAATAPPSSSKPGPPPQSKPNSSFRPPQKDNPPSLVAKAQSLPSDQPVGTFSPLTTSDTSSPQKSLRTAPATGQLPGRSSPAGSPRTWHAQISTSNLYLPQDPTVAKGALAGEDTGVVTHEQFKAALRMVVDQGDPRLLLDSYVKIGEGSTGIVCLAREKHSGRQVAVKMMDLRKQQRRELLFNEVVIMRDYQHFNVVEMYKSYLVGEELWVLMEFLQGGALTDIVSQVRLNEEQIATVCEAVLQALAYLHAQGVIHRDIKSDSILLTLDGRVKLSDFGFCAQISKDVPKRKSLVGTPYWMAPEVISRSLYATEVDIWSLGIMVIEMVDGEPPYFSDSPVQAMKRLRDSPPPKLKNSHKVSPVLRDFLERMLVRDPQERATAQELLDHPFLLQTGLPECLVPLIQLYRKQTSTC

STK33 (human), sequence (Q9BYT3 whole entry, looked up): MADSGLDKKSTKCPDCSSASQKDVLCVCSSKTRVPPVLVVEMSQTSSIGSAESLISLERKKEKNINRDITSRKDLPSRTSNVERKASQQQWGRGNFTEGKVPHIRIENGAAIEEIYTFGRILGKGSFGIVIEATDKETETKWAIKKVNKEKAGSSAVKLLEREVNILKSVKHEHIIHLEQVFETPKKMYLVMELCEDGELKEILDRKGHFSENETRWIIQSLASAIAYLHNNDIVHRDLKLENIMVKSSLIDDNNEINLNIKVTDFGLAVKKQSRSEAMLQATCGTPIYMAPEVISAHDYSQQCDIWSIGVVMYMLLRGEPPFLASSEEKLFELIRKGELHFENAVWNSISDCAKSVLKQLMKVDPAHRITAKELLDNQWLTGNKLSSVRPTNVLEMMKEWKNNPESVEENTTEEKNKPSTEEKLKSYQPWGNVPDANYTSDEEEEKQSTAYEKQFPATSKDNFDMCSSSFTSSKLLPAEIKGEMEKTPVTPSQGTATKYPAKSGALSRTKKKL
STK16 (human), sequence (O75716 whole entry, looked up): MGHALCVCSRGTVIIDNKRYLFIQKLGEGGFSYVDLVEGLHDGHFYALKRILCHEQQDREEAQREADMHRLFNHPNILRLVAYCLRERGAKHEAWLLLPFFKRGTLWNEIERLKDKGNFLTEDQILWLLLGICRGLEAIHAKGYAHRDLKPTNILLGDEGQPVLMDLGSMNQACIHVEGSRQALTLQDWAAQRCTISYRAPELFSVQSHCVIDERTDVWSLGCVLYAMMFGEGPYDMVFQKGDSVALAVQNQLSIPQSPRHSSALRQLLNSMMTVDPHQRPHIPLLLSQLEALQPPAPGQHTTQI
TEK (human), sequence (Q02763 whole entry, looked up): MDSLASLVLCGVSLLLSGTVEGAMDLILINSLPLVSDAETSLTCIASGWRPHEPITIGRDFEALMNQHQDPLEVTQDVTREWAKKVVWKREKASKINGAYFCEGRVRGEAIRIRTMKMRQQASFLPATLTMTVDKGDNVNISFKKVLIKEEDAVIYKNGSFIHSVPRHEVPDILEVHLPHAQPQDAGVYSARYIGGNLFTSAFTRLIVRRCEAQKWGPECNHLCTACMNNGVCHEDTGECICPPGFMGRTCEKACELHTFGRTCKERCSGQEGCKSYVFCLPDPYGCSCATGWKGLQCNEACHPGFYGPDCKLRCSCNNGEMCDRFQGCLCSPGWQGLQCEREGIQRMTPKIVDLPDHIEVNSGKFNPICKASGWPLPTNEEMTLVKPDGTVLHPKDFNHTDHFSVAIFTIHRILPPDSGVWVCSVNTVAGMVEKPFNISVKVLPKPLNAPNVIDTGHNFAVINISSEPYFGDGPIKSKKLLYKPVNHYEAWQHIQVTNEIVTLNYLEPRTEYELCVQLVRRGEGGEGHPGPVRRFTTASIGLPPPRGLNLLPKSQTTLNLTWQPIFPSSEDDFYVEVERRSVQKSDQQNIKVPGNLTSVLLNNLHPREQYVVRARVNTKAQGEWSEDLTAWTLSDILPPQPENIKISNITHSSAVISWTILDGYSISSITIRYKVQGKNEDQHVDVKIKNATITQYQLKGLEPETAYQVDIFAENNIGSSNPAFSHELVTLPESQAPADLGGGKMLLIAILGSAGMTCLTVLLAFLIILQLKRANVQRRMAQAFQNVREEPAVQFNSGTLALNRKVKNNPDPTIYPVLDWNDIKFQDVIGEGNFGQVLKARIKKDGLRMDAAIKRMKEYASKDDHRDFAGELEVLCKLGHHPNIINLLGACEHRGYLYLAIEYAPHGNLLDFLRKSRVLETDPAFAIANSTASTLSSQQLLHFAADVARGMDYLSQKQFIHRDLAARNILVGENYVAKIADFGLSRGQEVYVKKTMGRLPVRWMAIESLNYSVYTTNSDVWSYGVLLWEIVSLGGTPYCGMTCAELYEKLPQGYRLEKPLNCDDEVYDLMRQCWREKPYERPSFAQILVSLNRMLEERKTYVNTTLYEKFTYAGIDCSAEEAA

| residual activity (EIF2AK3 (human); compound 1.0 µM) | residual activity (STK16 (human); compound 1.0 µM) | residual activity (IRAK1 (human); compound 1.0 µM) | residual activity (STK33 (human); compound 1.0 µM) | residual activity (TESK1 (human); compound 1.0 µM) | residual activity (TTBK1 (human); compound 1.0 µM) | residual activity (TEK (human); compound 1.0 µM) | residual activity (PTK6 (human); compound 1.0 µM) | residual activity ([1]; compound 1.0 µM) | residual activity (ABL1 (human); compound 1.0 µM) | residual activity (PRKCG (human); compound 1.0 µM) | residual activity (ZAP70 (human); compound 1.0 µM) | residual activity (TLK1 (human); compound 1.0 µM) | residual activity (MAPK11 (human); compound 1.0 µM) | residual activity (PAK6 (human); compound 1.0 µM) | residual activity (EIF2AK3 (human); compound 10.0 µM) | residual activity (STK16 (human); compound 10.0 µM) | residual activity (STK33 (human); compound 10.0 µM) | residual activity (TEK (human); compound 10.0 µM) | residual activity ([1]; compound 10.0 µM) | Structure (SMILES) | further results |
| --- | --- | --- | --- | --- | --- | --- | --- | --- | --- | --- | --- | --- | --- | --- | --- | --- | --- | --- | --- | --- | --- |
| 31% | 42% | 5% | 23% | 24% | 102% | 11% | 6% | 71% | 7% | 71% | 22% | 39% | 95% | 24% | – | – | – | – | – | COc1ccc(-n2ncc3cnc(Nc4cc(OC)c(OC)c(OCCCN5CCN(C)CC5)c4)nc32)cc1 | residual activity (STK16 (human); compound 0.1 µM): 101%; residual activity (IRAK1 (human); compound 0.1 µM): 19%; residual activity (STK33 (human); compound 0.1 µM): 30%; residual activity (TESK1 (human); compound 0.1 µM): 59%; residual activity (TTBK1 (human); compound 0.1 µM): 104%; residual activity (TEK (human); compound 0.1 µM): 60%; residual activity (PTK6 (human); compound 0.1 µM): 46%; residual activity ([1]; compound 0.1 µM): 101%; residual activity (ABL1 (human); compound 0.1 µM): 31%; residual activity (PRKCG (human); compound 0.1 µM): 117%; residual activity (ZAP70 (human); compound 0.1 µM): 54%; residual activity (TSSK1B (human); compound 0.1 µM): 31%; residual activity (TSSK1B (human); compound 1.0 µM): 5%; residual activity (TLK1 (human); compound 0.1 µM): 79%; residual activity (MAPK11 (human); compound 0.1 µM): 103%; residual activity (PAK6 (human); compound 0.1 µM): 62% |
| 101% | 87% | 79% | – | 116% | 110% | 93% | 96% | 102% | 93% | 111% | 75% | 84% | 89% | 98% | 97% | 100% | 98% | 95% | 103% | CC(C)(C#N)c1ccc(N2C(=O)OCc3cnc4ccc(-c5cnc6ccccc6c5)cc4c32)cc1 | residual activity (IRAK1 (human); compound 10.0 µM): 56%; residual activity (TESK1 (human); compound 10.0 µM): 108%; residual activity (TTBK1 (human); compound 10.0 µM): 100%; residual activity (PTK6 (human); compound 10.0 µM): 97%; residual activity (ABL1 (human); compound 10.0 µM): 103%; residual activity (PRKCG (human); compound 10.0 µM): 99%; residual activity (ZAP70 (human); compound 10.0 µM): 77%; residual activity (TSSK1B (human); compound 10.0 µM): 103%; residual activity (TLK1 (human); compound 10.0 µM): 101%; residual activity (MAPK11 (human); compound 10.0 µM): 103%; residual activity (PAK6 (human); compound 10.0 µM): 110% |
| 94% | 46% | 106% | 101% | – | – | 78% | 99% | 96% | 96% | 81% | 104% | 86% | 84% | 97% | 88% | 47% | 89% | 67% | 80% | Cc1nc(-c2ccc(OCC(C)C)c(C#N)c2)sc1C(=O)O | residual activity (IRAK1 (human); compound 10.0 µM): 102%; residual activity (ABL1 (human); compound 10.0 µM): 89%; residual activity (PRKCG (human); compound 10.0 µM): 85%; residual activity (TLK1 (human); compound 10.0 µM): 94%; residual activity (MAPK11 (human); compound 10.0 µM): 91%; residual activity (PAK6 (human); compound 10.0 µM): 107% |
| 106% | 87% | 105% | 82% | 94% | 124% | 110% | 101% | – | 106% | 99% | 110% | 113% | 120% | 106% | 105% | 96% | 90% | 118% | 115% | Cc1ccc(=O)n(-c2ccccc2)c1 | residual activity (TESK1 (human); compound 10.0 µM): 82%; residual activity (TTBK1 (human); compound 10.0 µM): 107%; residual activity (PTK6 (human); compound 10.0 µM): 92%; residual activity (ABL1 (human); compound 10.0 µM): 112%; residual activity (PRKCG (human); compound 10.0 µM): 94%; residual activity (TSSK1B (human); compound 1.0 µM): 87%; residual activity (TSSK1B (human); compound 10.0 µM): 91%; residual activity (TLK1 (human); compound 10.0 µM): 115%; residual activity (MAPK11 (human); compound 10.0 µM): 111%; residual activity (PAK6 (human); compound 10.0 µM): 96% |
